Data reported in US9956204B2, “Composition for exterminating scuticociliates in fish including mebendazole” (NATIONAL INSTITUTE OF FISHERIES SCIENCE, priority 2016, dated 2018).

Key:
scuticociliates [1] = assay: Scuticociliates extermination effect of candidate substances in seawater medium; assay type: cell-based; details: seawater medium, 4 hour
Description: For this, scuticociliates were cultured in CHSE-214 cell line (using MEM medium), and then scuticociliates were collected and centrifuged with sterilized seawater or artificial seawater (20‰) to replace them with a seawater medium. Each of 100 μl (1×10^5) was dispensed into each well of 96 wells, followed by further culture for 30 minutes. The candidate substances diluted in seawater to have a volume of 100 μl per each concentration were mixed with scuticociliates to have the final volume of 200 μl and cultured for 4 hour.

scuticociliates [2] = assay: Scuticociliates extermination effect of candidate substances in MEM medium; assay type: cell-based; details: MEM medium
Description: CHSE-214 cell line into which scuticociliates were inoculated was cultured in advance. The CHSE-214 cell line was cultured in an incubator using an MEM medium at 22° C. Scuticociliates inoculated into the cell line proliferated for 3 days by which the number reaches to be capable of analyzing in vitro anti-scuticociliates effect. Scuticociliates that feed on the cell line and sufficiently grow were mixed with the candidate substance and the activity of scuticociliates was measured.
In order to analyze the antiparasitic activity of the above 19 types of candidate substances of scuticociliates extermination drugs, scuticociliates were cultured for 3 days, and 100 μl (1×10^5) was dispensed into each well of 96 wells. The candidate substances were diluted by each concentration and the final volume was dispensed into 100 μl. Thereafter, the two were mixed and finally made into 200 μl.

| Structure (SMILES) | Survival or Death of scuticociliates (activity and shape, microscope) (scuticociliates [1]; Dosage 50 ppm) | Survival or Death of scuticociliates (activity and shape, microscope) (scuticociliates [1]; Dosage 500 ppm) | Survival or Death of scuticociliates (activity and shape, microscope) (scuticociliates [1]; Dosage 1000 ppm) | Survival or Death of scuticociliates (activity and shape, microscope) (scuticociliates [1]; Dosage 1200 ppm) | Survival or Death of scuticociliates (activity and shape, microscope) (scuticociliates [1]; Dosage 1400 ppm) | Survival or Death of scuticociliates (activity and shape, microscope) (scuticociliates [1]; Dosage 1500 ppm) | Survival or Death of scuticociliates (activity and shape, microscope) (scuticociliates [2]; Dosage 500 ppm) | Survival or Death of scuticociliates (activity and shape, microscope) (scuticociliates [2]; Dosage 700 ppm) | Survival or Death of scuticociliates (activity and shape, microscope) (scuticociliates [2]; Dosage 800 ppm) | Survival or Death of scuticociliates (activity and shape, microscope) (scuticociliates [2]; Dosage 900 ppm) | Survival or Death of scuticociliates (activity and shape, microscope) (scuticociliates [2]; Dosage 1000 ppm) | Survival or Death of scuticociliates (activity and shape, microscope) (scuticociliates [2]; Dosage 2000 ppm) | Survival or Death of scuticociliates (activity and shape, microscope) (scuticociliates [2]; Dosage 4000 ppm) | Survival or Death of scuticociliates (activity and shape, microscope) (scuticociliates [2]; Dosage 600 ppm) | Survival or Death of scuticociliates (activity and shape, microscope) (scuticociliates [1]; Dosage 2000 ppm) | Survival or Death of scuticociliates (activity and shape, microscope) (scuticociliates [1]; Dosage 2500 ppm) | also measured |
| --- | --- | --- | --- | --- | --- | --- | --- | --- | --- | --- | --- | --- | --- | --- | --- | --- | --- |
| Nc1cc(C(Cl)=C(Cl)Cl)c(S(N)(=O)=O)cc1S(N)(=O)=O [Clorsulon] | Survival | Survival | Survival | Survival | Survival | Death | Survival | Survival | Survival | Δ | Δ | Death | Death |  |  |  | Survival or Death of scuticociliates (activity and shape, microscope) (scuticociliates [1]; Dosage 250 ppm): Survival |
| CC1(C)[C@H](C(=O)O[C@H](C#N)c2cccc(Oc3ccccc3)c2)[C@@H]1C=C(Br)Br [Deltamethrin] |  | Survival | Survival | Death | Death | Death | Survival | Survival | Survival | Survival | Δ | Death |  | Survival |  |  | Survival or Death of scuticociliates (activity and shape, microscope) (scuticociliates [1]; Dosage 250 ppm): Survival; Survival or Death of scuticociliates (activity and shape, microscope) (scuticociliates [2]; Dosage 5000 ppm): Death |
| COC(=O)Nc1nc2ccc(Sc3ccccc3)cc2[nH]1 [Fenbendazole] | Survival | Survival | Death |  |  |  | Survival | Survival | Δ | Δ | Death |  |  | Survival |  |  | Survival or Death of scuticociliates (activity and shape, microscope) (scuticociliates [1]; Dosage 10 ppm): Survival; Survival or Death of scuticociliates (activity and shape, microscope) (scuticociliates [1]; Dosage 100 ppm): Survival; Survival or Death of scuticociliates (activity and shape, microscope) (scuticociliates [1]; Dosage 200 ppm): Survival; Survival or Death of scuticociliates (activity and shape, microscope) (scuticociliates [1]; Dosage 300 ppm): Survival; Survival or Death of scuticociliates (activity and shape, microscope) (scuticociliates [1]; Dosage 400 ppm): Survival; Survival or Death of scuticociliates (activity and shape, microscope) (scuticociliates [1]; Dosage 600 ppm): Survival; Survival or Death of scuticociliates (activity and shape, microscope) (scuticociliates [1]; Dosage 700 ppm): Survival; Survival or Death of scuticociliates (activity and shape, microscope) (scuticociliates [1]; Dosage 800 ppm): Δ; Survival or Death of scuticociliates (activity and shape, microscope) (scuticociliates [1]; Dosage 900 ppm): Δ; Survival or Death of scuticociliates (activity and shape, microscope) (scuticociliates [2]; Dosage 10 ppm): Survival; Survival or Death of scuticociliates (activity and shape, microscope) (scuticociliates [2]; Dosage 50 ppm): Survival; Survival or Death of scuticociliates (activity and shape, microscope) (scuticociliates [2]; Dosage 100 ppm): Survival; Survival or Death of scuticociliates (activity and shape, microscope) (scuticociliates [2]; Dosage 200 ppm): Survival; Survival or Death of scuticociliates (activity and shape, microscope) (scuticociliates [2]; Dosage 300 ppm): Survival; Survival or Death of scuticociliates (activity and shape, microscope) (scuticociliates [2]; Dosage 400 ppm): Survival |
| O=[N+]([O-])NC1=NCCN1Cc1ccc(Cl)nc1 [Imidacloprid] |  | Survival | Δ | Δ | Death | Death | Survival | Survival | Survival | Δ | Δ | Death |  | Survival | Death | Death | Survival or Death of scuticociliates (activity and shape, microscope) (scuticociliates [2]; Dosage 5000 ppm): Death |
| CC[C@H](C)[C@H]1O[C@]2(CC[C@@H]1C)C[C@@H]1C[C@@H](C/C=C(\C)[C@@H](O[C@H]3C[C@H](OC)[C@@H](O[C@H]4C[C@H](OC)[C@@H](O)[C@H](C)O4)[C@H](C)O3)[C@@H](C)/C=C/C=C3\CO[C@@H]4[C@H](O)C(C)=C[C@@H](C(=O)O1)[C@]34O)O2 [Ivermectin] |  | Survival | Survival |  |  | Survival | Survival |  |  |  | Survival | Survival | Survival |  | Survival | Survival | Survival or Death of scuticociliates (activity and shape, microscope) (scuticociliates [1]; Dosage 3000 ppm): Survival; Survival or Death of scuticociliates (activity and shape, microscope) (scuticociliates [1]; Dosage 3500 ppm): Survival; Survival or Death of scuticociliates (activity and shape, microscope) (scuticociliates [1]; Dosage 4000 ppm): Survival; Survival or Death of scuticociliates (activity and shape, microscope) (scuticociliates [2]; Dosage 1500 ppm): Survival; Survival or Death of scuticociliates (activity and shape, microscope) (scuticociliates [2]; Dosage 2500 ppm): Survival; Survival or Death of scuticociliates (activity and shape, microscope) (scuticociliates [2]; Dosage 3000 ppm): Survival; Survival or Death of scuticociliates (activity and shape, microscope) (scuticociliates [2]; Dosage 3500 ppm): Survival |
| c1ccc([C@H]2CN3CCSC3=N2)cc1 [Levamisol] |  | Survival | Survival |  |  | Survival | Survival |  |  |  | Survival | Survival | Survival |  | Survival | Survival | Survival or Death of scuticociliates (activity and shape, microscope) (scuticociliates [1]; Dosage 3000 ppm): Survival; Survival or Death of scuticociliates (activity and shape, microscope) (scuticociliates [1]; Dosage 3500 ppm): Survival; Survival or Death of scuticociliates (activity and shape, microscope) (scuticociliates [1]; Dosage 4000 ppm): Survival; Survival or Death of scuticociliates (activity and shape, microscope) (scuticociliates [2]; Dosage 1500 ppm): Survival; Survival or Death of scuticociliates (activity and shape, microscope) (scuticociliates [2]; Dosage 2500 ppm): Survival; Survival or Death of scuticociliates (activity and shape, microscope) (scuticociliates [2]; Dosage 3000 ppm): Survival; Survival or Death of scuticociliates (activity and shape, microscope) (scuticociliates [2]; Dosage 3500 ppm): Survival |
| COC(=O)Nc1nc2ccc([S+]([O-])c3ccccc3)cc2[nH]1 (stereo not drawn) [Oxfendazole] | Survival | Survival | Death |  |  |  | Survival | Δ | Δ | Δ | Death |  |  | Survival |  |  | Survival or Death of scuticociliates (activity and shape, microscope) (scuticociliates [1]; Dosage 10 ppm): Survival; Survival or Death of scuticociliates (activity and shape, microscope) (scuticociliates [1]; Dosage 100 ppm): Survival; Survival or Death of scuticociliates (activity and shape, microscope) (scuticociliates [1]; Dosage 200 ppm): Survival; Survival or Death of scuticociliates (activity and shape, microscope) (scuticociliates [1]; Dosage 300 ppm): Survival; Survival or Death of scuticociliates (activity and shape, microscope) (scuticociliates [1]; Dosage 400 ppm): Survival; Survival or Death of scuticociliates (activity and shape, microscope) (scuticociliates [1]; Dosage 600 ppm): Survival; Survival or Death of scuticociliates (activity and shape, microscope) (scuticociliates [1]; Dosage 700 ppm): Δ; Survival or Death of scuticociliates (activity and shape, microscope) (scuticociliates [1]; Dosage 800 ppm): Δ; Survival or Death of scuticociliates (activity and shape, microscope) (scuticociliates [1]; Dosage 900 ppm): Δ; Survival or Death of scuticociliates (activity and shape, microscope) (scuticociliates [2]; Dosage 10 ppm): Survival; Survival or Death of scuticociliates (activity and shape, microscope) (scuticociliates [2]; Dosage 50 ppm): Survival; Survival or Death of scuticociliates (activity and shape, microscope) (scuticociliates [2]; Dosage 100 ppm): Survival; Survival or Death of scuticociliates (activity and shape, microscope) (scuticociliates [2]; Dosage 200 ppm): Survival; Survival or Death of scuticociliates (activity and shape, microscope) (scuticociliates [2]; Dosage 300 ppm): Survival; Survival or Death of scuticociliates (activity and shape, microscope) (scuticociliates [2]; Dosage 400 ppm): Survival |
